Measurements from patent US5190981A, “Formulation containing S(+) enantiomer of flurbiprofen or ketoprofen and method of use for oral administration for prevention and treatment of bone loss associated with periodontal disease” (Sepracor Inc., priority 1991, dated 1993).

Experiments:
[1] = Bioavailability of flurbiprofen enantiomers in toothpaste: five-way blinded crossover, blood levels over 24 h after toothbrushing, chiral HPLC; format: in vivo, human (healthy adult volunteers); conditions: for initial plasma concentrations of each enantiomer across formulations: from toothpaste formulation to toothpaste formulation; for initial plasma concentrations of each enantiomer across formulations / accumulation of enantiomers: data not shown; for accumulation of enantiomers: repeated use
Excerpt: The purpose of this study was to show how well subjects tolerated three strengths of S(+) flurbiprofen toothpaste (1%, 0.5% and 0.25%), as well as the relationship between dose and blood level of the active isomer in comparison with an identical formulation of racemic flurbiprofen (1%) or an intermediate formulation of 80% S(+) flurbiprofen and 20% R(-) flurbiprofen (1%). A toothpaste containing one of the three concentrations of S(+) flurbiprofen, the 1% intermediate formulation or 1% racemic flurbiprofen were used in the study.
The drug is an acid and, therefore, the formulation was adjusted to pH 5.6, in order to improve buccal absorption. The formulation also contained menthol or wintergreen in order to mask the slight bitter taste of the drug. Standard formulation techniques were used.
Eight healthy adult volunteers were selected as subjects for the five-way, blinded, crossover study of flurbiprofen blood levels over a 24 hour period following toothbrushing with toothpastes containing the different concentrations of S(+) flurbiprofen and R(-) flurbiprofen. Each volunteer brushed with about 1 g of a toothpaste formulation for 1 minute followed by rinsing twice daily for 3 days. On the fourth morning, brushing with 1 g of the toothpaste formulation was repeated and blood samples were collected for subsequent analysis at -0.25, 0.25, 1, 2, 4, 8, 12, 23 and 24 hours relative to this toothbrushing episode. Each treatment period was followed by a washout interval of 4 days before the next toothpaste formulation was provided.
The concentration of the individual enantiomers was determined by HPLC on chiral-APG (5μ. 100×4 mm). The mobile phase was 1% 2-propanol in 10 mM NaH2 PO4 buffer, pH 7.0, at 0.6 ml/min. The enantiomers were detected by fluorescence monitoring with excitation at 250 nm and emission at 315 nm. The individual enantiomers were detectable down to 5-10 ng/ml. Standard and calibration curves were prepared for each set of samples and an internal standard of S(+) ibuprofen was added to all samples. Pharmacokinetic calculations were non-compartmental and employed conventional data analysis (linear trapezoidal role) to determine the concentrations or total amounts for each enantiomer and formulation that were analyzed.
The results of this study are presented as follows: 1% by weight racemic flurbiprofen (1S, 1R); 1% by weight 80% S(+) flurbiprofen, 20% R(-) flurbiprofen as a eutectic mixture (2S, 2R); 1% by weight 95% S(+) flurbiprofen, 5% R(-) flurbiprofen (3S); 0.5% by weight 95% S(+) fluriprofen, 5% R(-) flurbiprofen (4S); and 0.25% by weight 95% S(+) flurbiprofen, 5% R(-) flurbiprofen (5S). It should be noted that approximately equivalent amounts (5 mg) of S(+)flurbiprofen were administered in results denoted 1S and 4S. The results from the present study have been further compared with calculations based on results from a previous study by Stalker et al. "Bioavailability of Flurbiprofen following Buccal Administration", Pharm Res. 8, 605-608 (1991). The calculated amounts of administered enantiomer in this previous study are 5 mg buccal S(+) flurbiprofen as a mouthwash (buccal S) or 5 mg PO S(+) flurbiprofen (PO S).

[2] = oral; cited from earlier work

| SMILES | initial plasma concentrations of each enantiomer across formulations [1] | accumulation of enantiomers ([1]; toothpaste) | absorption when taken orally [2] | absorption of S(+) enantiomer alone vs as racemic mixture ([1]; comparison of 1S and 4S, toothpaste) | blood concentration and persistence, toothpaste vs mouthwash or PO ([1]; equivalent amounts of S(+) flurbiprofen, e.g. 1S and 4S compared to buccal S or PO S) | dose relationship of plasma concentrations, 0.25% to 0.5% ([1]; toothpaste between 0.25% and 0.5% by weight) | dose relationship of plasma concentrations at 1% ([1]; toothpaste, 1% by weight) |
| --- | --- | --- | --- | --- | --- | --- | --- |
| C[C@@H](C(=O)O)c1ccc(-c2ccccc2)c(F)c1 [R(-) flurbiprofen] | approximately the same | no accumulation |  |  |  |  |  |
| C[C@H](C(=O)O)c1ccc(-c2ccccc2)c(F)c1 [S(+) flurbiprofen] | approximately the same | no accumulation | readily absorbed | preferentially absorbed when administered alone in a toothpaste formulation than when administered as a racemic mixture | higher and its availability is more persistent when in a toothpaste formulation | dose dependent relationship of plasma concentrations | non-linear at 1% by weight |
